Results published in ChEMBL document CHEMBL1122319, “Substituted (2-phenoxyphenyl)acetic acids with antiinflammatory activity. 1” (J Med Chem, 1983).

Tests used:
[1] = organism: Rattus norvegicus; assay: Potency relative to [2-(2,4-Dichloro-phenoxy)-phenyl]-acetic acid in rat adjuvant arthritis test; format: functional
[2] = test system: Rattus norvegicus; assay: Reduction in paw swelling at 100 mg/kg po dose in rat using adjuvant arthritis test.; format: functional

Row | Structure (SMILES) | Relative potency [1] | Reduction [2]
1 | COc1cc(Cl)ccc1Oc1ccc(C)cc1CC(=O)O | 0.7 | 23
2 | Cc1ccc(Oc2ccc(CC(C)C)cc2Cl)c(CC(=O)O)c1 | 0.2 | 19
3 | Cc1ccc(Oc2ccc(Cl)c(Cl)c2)c(CC(=O)O)c1 |  | 9
4 | Cc1ccc(Oc2ccc(C)cc2CC(=O)O)c(Cl)c1 | 0.4 | 35
5 | Cc1cc(Oc2ccc(Cl)cc2CC(=O)O)cc(C)c1Cl |  | 23
6 | CCCCCCCCc1ccc(Oc2ccc(C)cc2CC(=O)O)c(Cl)c1 |  | 13%
7 | O=C(O)Cc1cc(Cl)ccc1Oc1ccc(O)cc1Cl |  | 36
8 | COc1ccc(Oc2ccc(Cl)cc2CC(=O)O)c(Cl)c1 |  | 18
9 | CCCCCCc1ccc(Oc2ccc(C)cc2CC(=O)O)c(Cl)c1 |  | 5
10 | O=C(O)Cc1ccccc1Oc1ccc([N+](=O)[O-])cc1[N+](=O)[O-] |  | 0%
11 | Cc1ccc(Oc2ccccc2F)c(CC(=O)O)c1 |  | 24
12 | O=C(O)Cc1cc(Cl)ccc1Oc1ccccc1F |  | 21
13 | O=C(O)Cc1ccccc1Oc1ccc(Br)cc1Br | 0.8 | 29
14 | O=C(O)Cc1ccccc1Oc1ccc(Cl)c(Cl)c1 |  | 20
15 | CCCCCCCCCCc1ccc(Oc2ccc(C)cc2CC(=O)O)c(Cl)c1 |  | 9%
16 | O=C(O)C(=O)c1ccccc1Oc1ccc(Cl)cc1Cl | 0.3 | 23
17 | Cc1ccc(Oc2cc(O)c(C)cc2CC(=O)O)c(Cl)c1 |  | 12
18 | Cc1ccc(Oc2ccccc2C(F)(F)F)c(CC(=O)O)c1 |  | 0
19 | CC(C(=O)O)c1ccccc1Oc1ccc(Cl)cc1Cl (stereo not drawn) |  | 0
20 | Cc1cc(Oc2ccc(Cl)cc2CC(=O)O)c(Cl)cc1Cl | 0.6 | 40
21 | Cc1ccc(Oc2c(Cl)cccc2Cl)c(CC(=O)O)c1 |  | 16

Row | Structure (SMILES) | Relative potency [1] | Reduction [2]
22 | O=C(O)Cc1ccccc1Oc1ccc(Cl)cc1 |  | 0
23 | Nc1ccc(Oc2ccccc2CC(=O)O)c(N)c1 |  | 0%
24 | Cc1ccc(Oc2cc(C)c(Cl)cc2C)c(CC(=O)O)c1 |  | 10
25 | Cc1ccc(Oc2ccc(Cl)cc2O)c(CC(=O)O)c1 |  | 26
26 | Cc1ccc(Oc2ccc(Cl)cc2C)c(CC(=O)O)c1 |  | 17
27 | CCCCc1ccc(Cl)c(Oc2ccc(C)cc2CC(=O)O)c1 |  | 5
28 | O=C(O)Cc1ccccc1Oc1c(Cl)cc(Cl)cc1Cl |  | 23
29 | O=C(O)Cc1ccccc1Oc1cccc(Cl)c1Cl |  | 51
30 | Cc1ccc(Oc2ccc(Cl)cc2CC(=O)O)c(C)c1 |  | 22
31 | Cc1ccc(Oc2cc(C)c(Cl)c(C)c2Cl)c(CC(=O)O)c1 |  | 20
32 | Cc1ccc(Oc2cc(Cl)ccc2Cl)c(CC(=O)O)c1 | 0.4 | 32
33 | Nc1ccc(Oc2ccc(Cl)cc2Cl)c(CC(=O)O)c1 |  | 0
34 | O=C(O)Cc1cc(Cl)ccc1Oc1cccc(Cl)c1 |  | 0
35 | O=C(O)Cc1ccccc1Oc1ccccc1C(F)(F)F |  | 0
36 | O=C(O)Cc1ccccc1Oc1cc(Cl)c(Cl)cc1Cl |  | 17
37 | Cc1ccc(Oc2c(C)cc(Cl)cc2C)c(CC(=O)O)c1 | 0.3 | 14
38 | Cc1ccc(Oc2ccccc2CC(=O)O)c(Cl)c1 |  | 21
39 | O=C(O)c1ccccc1Oc1ccc(Cl)cc1Cl |  | 18
40 | Cc1ccc(Oc2ccc(-c3ccccc3)cc2Cl)c(CC(=O)O)c1 | 0.2 | 23
41 | CCCc1ccc(Oc2ccc(C)cc2CC(=O)O)c(Cl)c1 | 0.6 | 27
42 | Cc1ccc(Oc2ccc(C(C)C)cc2Cl)c(CC(=O)O)c1 | 1.6 | 30

Row | Structure (SMILES) | Relative potency [1] | Reduction [2]
43 | Cc1ccc(Oc2ccccc2Cl)c(CC(=O)O)c1 |  | 12
44 | Cc1ccc(Oc2ccc(C)cc2CC(=O)O)c(C)c1 |  | 20
45 | Cc1ccc(Oc2cc(C)c(Cl)cc2Cl)c(CC(=O)O)c1 | 0.4 | 45
46 | Cc1cc(Oc2ccccc2CC(=O)O)c(Cl)cc1Cl |  | 19
47 | CCc1ccc(Oc2ccc(C)cc2CC(=O)O)c(CC)c1 |  | 8
48 | CCCCCCCCCCCc1ccc(Oc2ccc(C)cc2CC(=O)O)c(Cl)c1 |  | 14%
49 | O=C(O)Cc1ccccc1Oc1ccccc1 |  | 0
50 | Cc1ccc(Oc2cccc(Cl)c2C)c(CC(=O)O)c1 | 0.3 | 20
51 | Cc1ccc(Oc2cccc(Cl)c2Cl)c(CC(=O)O)c1 |  | 13
52 | Cc1ccc(Oc2ccc(Cl)c(C)c2)c(CC(=O)O)c1 |  | 9
53 | Cc1ccc(Oc2cc(C)c(Cl)cc2C(C)C)c(CC(=O)O)c1 |  | 3
54 | O=C(O)Cc1cc(Cl)ccc1Oc1ccccc1Cl |  | 0
55 | Cc1cc(Oc2ccc(Cl)cc2CC(=O)O)c(Cl)c(C)c1Cl | 1 | 41
56 | O=C(O)Cc1cc([N+](=O)[O-])ccc1Oc1ccc(Cl)cc1Cl |  | 9%
57 | O=C(O)Cc1cc(Cl)ccc1Oc1ccccc1 |  | 0
58 | COc1ccc(Oc2ccc(Cl)cc2Cl)c(CC(=O)O)c1 |  | 3
59 | O=C(O)Cc1cc(Cl)ccc1Oc1ccc(Cl)cc1Cl | 1 | 37
60 | Cc1cc(Cl)ccc1Oc1ccc(Cl)cc1CC(=O)O |  | 7
61 | Cc1ccc(Oc2ccc(Cl)cc2CC(=O)O)c(Cl)c1 |  | 10
62 | O=C(O)Cc1ccc(Oc2ccc(Cl)cc2Cl)cc1 |  | 2
63 | Cc1ccc(Oc2cc(C)c(Cl)c(C)c2)c(CC(=O)O)c1 | 0.7 | 5

Row | Structure (SMILES) | Relative potency [1] | Reduction [2]
64 | Cc1cc(Cl)c(Oc2ccc(Cl)cc2CC(=O)O)cc1C |  | 22
65 | O=C(O)Cc1cc([N+](=O)[O-])c([N+](=O)[O-])cc1Oc1ccc(Cl)cc1Cl |  | 8%
66 | CCCCCCCCCc1ccc(Oc2ccc(C)cc2CC(=O)O)c(Cl)c1 |  | 8%
67 | CCCCOc1ccc(CC(=O)O)c(Oc2ccc(C)cc2Cl)c1 |  | 0
68 | Cc1ccc(Oc2ccccc2CC(=O)O)c(C)c1 |  | 20
69 | Cc1cc(Cl)ccc1Oc1ccccc1CC(=O)O |  | 0
70 | Cc1ccc(Oc2ccc(O)cc2CC(=O)O)c(Cl)c1 |  | 10
71 | Cc1ccc(Oc2cc(C(F)(F)F)ccc2Cl)c(CC(=O)O)c1 | 3 | 29
72 | O=C(O)Cc1ccccc1Oc1ccc([N+](=O)[O-])cc1Cl |  | 19%
73 | Cc1ccc(Oc2ccc(N)cc2CC(=O)O)c(Cl)c1 |  | 3
74 | O=C(O)Cc1cc(Cl)ccc1Oc1ccc(Cl)cc1 |  | 21
75 | Cc1ccc(Oc2c(C)cccc2Cl)c(CC(=O)O)c1 | 0.5 | 26
76 | CCOC(=O)Cc1ccccc1Oc1ccc(Cl)cc1Cl | 0.5 | 34
77 | O=C(O)Cc1ccccc1Oc1c(Cl)cccc1Cl |  | 20
78 | CN(C)c1ccc(Oc2ccc(Cl)cc2Cl)c(CC(=O)O)c1 |  | 5
79 | O=C(O)Cc1ccccc1Oc1cc(Cl)ccc1Cl |  | 18
80 | O=C(O)Cc1cc(Cl)ccc1Oc1cc(Cl)ccc1Cl | 1 | 40
81 | Cc1ccc(Oc2ccc(C(F)(F)F)cc2CC(=O)O)c(Cl)c1 |  | 0
82 | O=C(O)CCc1ccccc1Oc1ccc(Cl)cc1Cl |  | 0
83 | O=C(O)Cc1ccccc1Oc1ccc(Cl)cc1[N+](=O)[O-] |  | 4%
